Experimental data published in publication PMC7912614, “(2-Aminobenzothiazole)-Methyl-1,1-Bisphosphonic Acids: Targeting Matrix Metalloproteinase 13 Inhibition to the Bone” (Pharmaceuticals, 2021).
Like-named read-outs stand apart in the source and are kept apart here.

Key:
[1] = target: T1, MMP-2 (Homo sapiens, UniProt P08253); assay: fluorometric MMP inhibition assay, MMP-2 catalytic domain; type: biochemical; conditions: for Ligand Efficiency MMP-2: calculated from IC50 values of Table 2; for IC50: catalytic domain, fluorometric assay, mean ± SEM of at least 3 experiments; for selectivity toward MMP-8 (MMP-2 inhibition versus MMP-8): ratio IC50 MMP-8 / IC50 MMP-2
T1 construct: Catalytic domains of MMP-2, -8, -9, and -13 were obtained from Enzo Life Sciences; purchased Enzo Life Sciences
T1 sequence (P08253 110-446 limits assumed): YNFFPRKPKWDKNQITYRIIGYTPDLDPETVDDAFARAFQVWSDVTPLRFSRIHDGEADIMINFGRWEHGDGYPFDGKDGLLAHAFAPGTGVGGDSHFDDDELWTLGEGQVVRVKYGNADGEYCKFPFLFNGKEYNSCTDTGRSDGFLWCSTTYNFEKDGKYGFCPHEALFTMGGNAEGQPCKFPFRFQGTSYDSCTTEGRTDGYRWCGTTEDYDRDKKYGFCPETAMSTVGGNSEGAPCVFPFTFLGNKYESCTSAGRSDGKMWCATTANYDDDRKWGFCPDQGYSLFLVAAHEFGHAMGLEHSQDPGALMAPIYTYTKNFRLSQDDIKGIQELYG
Description: (§1) Catalytic domains of MMP-2, -8, -9, and -13 were obtained from Enzo Life Sciences. 96-well white microtiter plates (Corning, NBS) were used to carry out the assays (in triplicate). The assay measurements were performed by preparing dilutions to six different concentrations (1 nM–100 µM) of each inhibitor in a fluorometric assay buffer (50 mM Tris·HCl pH 7.5, 200 mM NaCl, 1 mM CaCl2, 1 µM ZnCl2, 0.05% Brij-35, and 1% DMSO). Incubation of the enzyme and inhibitor solutions occurred for 15 min at room temperature; fluorogenic substrate solution (OmniMMP® = Mca-Pro-Leu-Gly-Leu-Dpa-Ala-Arg-NH2, Enzo Life Sciences, 2.5 µM final concentration or OmniMMP®RED = TQ3-GABA-Pro-Cha-Abu-Smc-His-Ala-Dab (6′-TAMRA)-Ala-Lys-NH2, Enzo Life Sciences, and 1 µM final concentration) was subsequently added. The assay was incubated for 2–4 h at 37 °C, after which a Perkin–Elmer Victor V3 plate reader was used to measure fluorescence (λex= 340 nm, λem = 405 nm or λex = 545 nm, λem = 572 nm). Included in the assay were control wells lacking any inhibitor. MMP activity was thus determined and expressed in relative fluorescence units (RFU). Percent inhibition was calculated from control wells and IC50 values were determined using GraphPad Prism 5.0 and are shown as mean ± SEM of at least three independent measurements, which were performed in triplicate.

[2] = target: T2, MMP-9 (Homo sapiens, UniProt P14780); assay: fluorometric MMP inhibition assay, MMP-9 catalytic domain; type: biochemical; conditions: for Ligand Efficiency MMP-9: calculated from IC50 values of Table 2; for IC50: catalytic domain, fluorometric assay, mean ± SEM of at least 3 experiments
T2 construct: Catalytic domains of MMP-2, -8, -9, and -13 were obtained from Enzo Life Sciences; purchased Enzo Life Sciences
T2 sequence (P14780 107-444 limits assumed): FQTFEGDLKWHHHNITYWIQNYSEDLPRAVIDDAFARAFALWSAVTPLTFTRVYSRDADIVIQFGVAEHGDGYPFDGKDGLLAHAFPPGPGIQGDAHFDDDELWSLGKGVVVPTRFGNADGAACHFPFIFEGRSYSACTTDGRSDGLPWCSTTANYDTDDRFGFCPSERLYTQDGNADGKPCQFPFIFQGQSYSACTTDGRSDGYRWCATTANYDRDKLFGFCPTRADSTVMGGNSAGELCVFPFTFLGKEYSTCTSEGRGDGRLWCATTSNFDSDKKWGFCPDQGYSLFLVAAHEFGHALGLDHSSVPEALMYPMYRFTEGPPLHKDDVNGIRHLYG
Description: as §1

[3] = target: T3, MMP-13 (Homo sapiens, UniProt P45452); assay: fluorometric MMP inhibition assay, MMP-13 catalytic domain; type: biochemical; conditions: for Ligand Efficiency MMP-13: calculated from IC50 values of Table 2; for IC50: catalytic domain, fluorometric assay, mean ± SEM of at least 3 experiments; for Selectivity MMP-2/13 / Selectivity MMP-8/13 / Selectivity MMP-9/13: ratio of IC50 values of Table 2
T3 construct: Catalytic domains of MMP-2, -8, -9, and -13 were obtained from Enzo Life Sciences; purchased Enzo Life Sciences
Description: as §1

[4] = target: T4, MMP-8 (Homo sapiens, UniProt P22894); assay: fluorometric MMP inhibition assay, MMP-8 catalytic domain; type: biochemical; conditions: for Ligand Efficiency MMP-8: calculated from IC50 values of Table 2; for IC50: catalytic domain, fluorometric assay, mean ± SEM of at least 3 experiments
T4 construct: Catalytic domains of MMP-2, -8, -9, and -13 were obtained from Enzo Life Sciences; purchased Enzo Life Sciences
T4 sequence (P22894 100-262 limits assumed): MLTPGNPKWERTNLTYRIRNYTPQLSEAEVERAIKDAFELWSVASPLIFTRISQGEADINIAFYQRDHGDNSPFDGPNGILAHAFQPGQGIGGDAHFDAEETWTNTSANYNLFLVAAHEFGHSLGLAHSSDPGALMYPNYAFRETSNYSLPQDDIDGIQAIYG
Description: as §1

[5] = target: T2, MMP-9; set-up: method as in PMID 21714093; conditions: inhibition values from literature; cited from earlier work

Row | Ligand Efficiency MMP-2 [1] | IC50 [1] | melting point | Ligand Efficiency MMP-9 [2] | IC50 [2] | Ligand Efficiency MMP-13 [3] | IC50 [3] | Selectivity MMP-2/13 [3] | Selectivity MMP-8/13 [3] | Selectivity MMP-9/13 [3] | Ligand Efficiency MMP-8 [4] | IC50 [4] | selectivity toward MMP-8 (MMP-2 inhibition versus MMP-8) [1] | SMILES | IC50 [5]
1 | 0.38 | 2.64 ± 0.04 µM | > 250 °C | 0.32 | 18.7 ± 2.9 µM | 0.41 | 1.23 ± 0.12 µM | 2.15 | 11.87 | 15.20 | 0.33 | 14.6 ± 0.2 µM |  | O=P(O)(O)C(Nc1nc2ccc(Cl)cc2s1)P(=O)(O)O [Compound 3, (6-chlorobenzo[d]thiazol-2-amino)methyl-1,1-bisphosphonic acid] | 
2 | 0.38 |  |  |  |  | 0.34 | 0.6 ± 0.3 µM | 0.23 | 0.67 | >166.67 | 0.35 |  |  | O=P(O)(O)C(NS(=O)(=O)c1ccc(-c2ccccc2)cc1)P(=O)(O)O [ML115, reference compound] | > 100 µM
3 | 0.29 | 1.16 ± 0.18 µM | > 250 °C | 0.25 | 6.3 ± 0.9 µM | 0.30 | 0.67 ± 0.025 µM | 1.73 | 13.43 | 9.40 | 0.25 | 9 ± 0.3 µM | 7.76 | O=C(Nc1ccc2nc(NC(P(=O)(O)O)P(=O)(O)O)sc2c1)c1ccccc1 [Compound 5, (6-benzamidobenzo[d]thiazol-2-amino)methyl-1,1-bisphosphonic acid] | 
4 | 0.27 | 0.98 ± 0.16 µM | > 250 °C | 0.23 | 5.4 ± 1.1 µM | 0.28 | 0.5 ± 0.01 µM | 1.96 | 13.40 | 10.80 | 0.23 | 6.7 ± 0.8 µM | 6.84 | O=C(Nc1ccc2nc(NC(P(=O)(O)O)P(=O)(O)O)sc2c1)c1ccc([N+](=O)[O-])cc1 [Compound 7, (6-(4-nitrobenzamido)benzo[d]thiazol-2-amino)methyl-1,1-bisphosphonic acid] | 
5 | 0.33 | 4.5 ± 0.5 µM | > 250 °C | 0.32 | 7.7 ± 1.1 µM | 0.35 | 2.25 ± 0.15 µM | 2.00 | 4.00 | 3.42 | 0.31 | 9 ± 0.4 µM |  | O=[N+]([O-])c1ccc2nc(NC(P(=O)(O)O)P(=O)(O)O)sc2c1 [Compound 4, (6-nitrobenzo[d]thiazol-2-amino)methyl-1,1-bisphosphonic acid] | 
6 | 0.26 | 1.69 ± 0.08 µM | > 250 °C | 0.24 | 5.4 ± 1.6 µM | 0.23 | 10.9 ± 2.4 µM | 0.16 | 1.10 | 0.50 | 0.23 | 12 ± 0.4 µM |  | O=C1c2ccccc2C(=O)N1c1ccc2nc(NC(P(=O)(O)O)P(=O)(O)O)sc2c1 [Compound 10, (6-(1,3-dioxoisoindolin-2-yl)benzo[d]thiazol-2-amino)methyl-1,1-bisphosphonic acid] | 

Second part, the compound before the results:

Row | SMILES | Ligand Efficiency MMP-2 [1] | IC50 [1] | melting point | Ligand Efficiency MMP-9 [2] | IC50 [2] | Ligand Efficiency MMP-13 [3] | IC50 [3] | Selectivity MMP-2/13 [3] | Selectivity MMP-8/13 [3] | Selectivity MMP-9/13 [3] | Ligand Efficiency MMP-8 [4] | IC50 [4] | selectivity toward MMP-8 (MMP-2 inhibition versus MMP-8) [1] | IC50 [5]
7 | CC(N)C(=O)Nc1ccc2nc(NC(P(=O)(O)O)P(=O)(O)O)sc2c1 (stereo not drawn) [Compound 11] | 0.28 | 9.4 ± 2 µM | > 250 °C |  | > 100 µM | 0.23 | 61.9 ± 1.3 µM | 0.15 | 0.87 | >1.62 | 0.23 | 54 ± 6 µM |  | 
8 | O=C(Nc1ccc2nc(NC(P(=O)(O)O)P(=O)(O)O)sc2c1)c1ccc(Br)cc1 [Compound 6, (6-(4-bromobenzamido)benzo[d]thiazol-2-amino)methyl-1,1-bisphosphonic acid] | 0.22 | 13.8 ± 0.9 µM | > 250 °C |  | > 100 µM | 0.24 | 6.7 ± 0.5 µM | 2.06 | 8.96 | >14.92 | 0.19 | 60 ± 2.6 µM |  | 
9 | O=C(Nc1ccccc1)Nc1ccc2nc(NC(P(=O)(O)O)P(=O)(O)O)sc2c1 [Compound 9, (6-(3-phenylureido)benzo[d]thiazol-2-amino)methyl-1,1-bisphosphonic acid] | 0.26 | 3 ± 0.4 µM | > 250 °C | 0.23 | 13.6 ± 1.4 µM | 0.23 | 11.5 ± 1.9 µM | 0.26 | 1.30 | 1.18 | 0.23 | 15 ± 5 µM |  | 
10 | O=P(O)(O)C(Nc1nc2ccccc2s1)P(=O)(O)O [Compound 1, (Benzo[d]thiazol-2-amino)methyl-1,1-bisphosphonic acid] | 0.36 | 12.7 ± 0.8 µM |  |  | > 100 µM | 0.38 | 6.5 ± 1.2 µM | 1.95 | 12.97 | >15.4 | 0.30 | 84.3 ± 2.1 µM |  | 
11 | O=C(Cc1ccccc1)Nc1ccc2nc(NC(P(=O)(O)O)P(=O)(O)O)sc2c1 [Compound 8, (6-(2-phenylacetamido)benzo[d]thiazol-2-amino)methyl-1,1-bisphosphonic acid] | 0.27 | 2.4 ± 0.5 µM | > 250 °C | 0.22 | 22 ± 8 µM | 0.24 | 9.3 ± 0.7 µM | 0.26 | 1.16 | 2.37 | 0.23 | 10.8 ± 3.1 µM |  | 
12 | O=P(O)(O)C(Nc1nc2ccc(F)cc2s1)P(=O)(O)O [Compound 2, (6-fluorobenzo[d]thiazol-2-amino)methyl-1,1-bisphosphonic acid] | 0.35 | 9 ± 0.9 µM | > 250 °C | 0.31 | 26.5 ± 2.7 µM | 0.37 | 4.25 ± 0.35 µM | 2.12 | 7.55 | 6.24 | 0.31 | 32.1 ± 1.9 µM |  | 
13 | O=P(O)(O)C(CNc1nc2ccc(Cl)cc2s1)P(=O)(O)O [Compound 12, (6-chlorobenzo[d]thiazol-2-amino)ethyl-1,1-bisphosphonic acid] | 0.35 | 4.7 ± 1.1 µM | > 250 °C | 0.29 | 36.6 ± 1.8 µM | 0.40 | 0.82 ± 0.06 µM | 5.73 | 25.98 | 44.63 | 0.31 | 21.3 ± 1.7 µM |  | 
